Where two headings read alike, the source gives them in different places.
How the values were obtained:
[1] = tested on: Murine L1210 leukemia cells; test: L1210 cell growth inhibition (IC50); assay type: cell-based
Experimental: Murine L1210 leukemia cells were maintained in logarithmic growth as a suspension culture in RPMI-1640 medium (Gibco, Grand Island, N.Y.) containing 10% fetal bovine serum (Gibco), 2% HEPES-MOPS buffer, 1 mM L-glutamine (Gibco), and 1 mM aminoguanidine at 37° C. in a water-jacketed 5% CO2 incubator.
Cells were grown in 25 cm^2 tissue culture flasks in a total volume of 10 mL. Cultures were treated during logarithmic growth (0.5−1.0×10^5 cells/mL) with the compounds of interest, reseeded, and incubated as described in Bergeron, R. J., Müller, R., Bussenius, J., McManis, J. S., Merriman, R. L., Smith, R. E., Yao, H., Weimar, W. R., “Synthesis and Evaluation of Hydroxylated Polyamine Analogues as Antiproliferatives,” J. Med. Chem 43: 224-235 (2000). Cell counting and calculation of percent of control growth were also carried out as described in Bergeron, et al. The IC50 is defined as the concentration of compound necessary to reduce cell growth to 50% of control growth after defined intervals of exposure.

polyamine transporter [2] = test: Competition with [3H]SPD for uptake into L1210 cells (polyamine transporter, Ki); assay type: cell-based, murine
Text: The compounds of interest were studied for their ability to compete with [^3H]SPD for uptake into L1210 leukemia cell suspensions in vitro as described in Bergeron, R. J., Hawthorne, T. R., Vinson, J. R. T., Beck, D. L., Jr., Ingeno, M. J., “Role of the Methylene Backbone in the Antiproliferative Activity of Polyamine Analogues on L1210 Cells,” Cancer Res. 49: 2959-2964 (1989); Bergeron, R. J., McManis, J. S., Liu, C. Z., Feng, Y., Weimar, W. R., Luchetta, G. R., Wu, Q., Ortiz-Ocasio, J., Vinson, J. R. T., Kramer, D., Porter, C., “Antiproliferative Properties of Polyamine Analogues: A Structure-Activity Study,” J. Med. Chem. 37: 3464-3476 (1994); and Bergeron, R. J., Weimar, W. R., Wu, Q., Feng, Y., McManis, J. S., “Polyamine Analogue Regulation of NMDA MK-801 Binding: A Structure-Activity Study,” J. Med. Chem. 39: 5257-5266 (1996). Briefly, cell suspensions were incubated in 1 mL of culture medium containing radiolabeled SPD alone or radiolabeled SPD in the presence of graduated concentrations of a chelator or derivative. At the end of the incubation period, the tubes were centrifuged; the pellet was washed, digested, and neutralized prior to scintillation counting. Lineweaver-Burk plots indicated a simple competitive inhibition with respect to SPD.
The molecules of interest were studied for their ability to compete with [^3H]SPD for uptake into L1210 leukemia cell suspensions in vitro. Briefly, cell suspensions were incubated in 1 mL of culture medium containing radiolabeled SPD alone or radiolabeled SPD in the presence of graduated concentrations of chelator or conjugate. At the end of the incubation period, the tubes were centrifuged; the pellet was washed, digested, and neutralized prior to scintillation counting. Lineweaver-Burk plots indicated simple competitive inhibition with respect to SPD.

[3] = tested on: chelator-promoted iron excretion; test: Iron clearance in the bile duct-cannulated rat; assay type: in vivo
Experimental: In this model, chelator-promoted iron excretion is measured in both the bile and the urine. Furthermore, because the method allows for collection of multiple bile samples, the kinetics of iron excretion can be determined. In each instance, the drugs were given subcutaneously. L1 and its SPM conjugate (4 and 5) were administered at a dose of 450 μmol/kg and (S)-4′-(HO)-DADFT (8) and its NSPD conjugates (9 and 10) were administered at a dose of 300 μmol/kg, i.e., all at equivalent iron-binding capacity.

L1210 leukemia cells [4] = test: Intracellular concentration / accumulation of analogue in L1210 cells (HPLC); settings: for intracellular concentration (analogue accumulation): treatment concentration 100 μM
Experimental: At the end of the treatment period, cell suspensions were sampled, washed three times in ice-cold, incomplete medium, and pelleted for extraction using 0.6 N perchloric acid, then freeze-fractured in liquid nitrogen/hot water three times.
During logarithmic growth, cells were treated with the compounds. At the end of the treatment period, cell suspensions were sampled, washed three times in ice-cold, incomplete medium, and pelleted for extraction using 0.6 N perchloric acid, then freeze-fractured in liquid nitrogen/hot water three times. Each supernatant was frozen at −20° C. until analysis of analogue content by HPLC,
Analytical separation was performed on a Waters Symmetry C18 column (250 mm×4.6 mm, 5 μm) with a guard column using a Rainin Instrument Company HPLC system. The buffer employed was sodium octanesulfonate (2.5 mM) in potassium phosphate (25 mM), pH 3.0. Mobile phase A consisted of 5% CH3CN, 95% buffer; mobile phase B consisted of 60% CH3CN, 40% buffer. The solvent gradient program employed a linear gradient that increased from 20% mobile phase B to 40% mobile phase B over 40 min and a 5-min ramp to 100% B over 5 min. Post-column derivatization used a boric acid buffer system (H3BO3, 3.1% w/v; KOH, 2.6% w/v; 2-mercaptoethanol, 0.6% v/v) that contained o-phthaldialdehyde (10 mL of a 4% w/v solution in CH3OH per L of buffer). The flow rate was 0.4 mL/min, isocratic; UV detection (λex, 340 nm; λem, 445 nm) was utilized.
Analytical separation was performed on a reversed-phase Supelco Discovery RP Amide C16 column (150×4.6 mm, 5 μm) on the system described above, and UV detection was at 300 nm. The mobile phases were pumped at a flow rate of 1.5 mL/min. The buffer and mobile phases A and B were the same as described above. The solvent gradient program employed an initial 10-min isocratic portion with 5% mobile phase B (95% A), followed by a linear gradient increase to 80% mobile phase B at 35 min, a 5-min ramp to 100% B held for 10 min, and ramping back to 5% mobile phase B for 8 min (58-65 min total).
In both cases, the concentrations were calculated from the peak area fitted to calibration curves by nonweighted least squares linear regression with Rainin Dynamax HPLC Method Manager software (Rainin Instrument Co.).

[5] = tested on: polyamine pools in L1210 cells; test: Effect on native polyamine pools in L1210 cells (HPLC); assay type: cell-based, murine; settings: L1210 cells
Experimental: At the end of the treatment period, cell suspensions were sampled, washed three times in ice-cold, incomplete medium, and pelleted for extraction using 0.6 N perchloric acid, then freeze-fractured in liquid nitrogen/hot water three times. Each supernatant was frozen at −20° C. until analysis of polyamine content by HPLC. […] The buffer consisted of potassium phosphate (10 mM) and EDTA (2 mM), pH 2.9.

[6] = tested on: Ornithine decarboxylase (ODC); test: ODC activity in treated L1210 cells; assay type: cell-based, murine
Experimental: (§1) Ornithine decarboxylase (ODC) and Adenosylmethionine decarboxylase (AdoMet DC) activities were determined according to the procedures of Seely, J. E., Pegg, A. E., “Ornithine Decarboxylase (Mouse Kidney),” Methods Enzymol. 94: 158-161 (1983) and Pegg, A. E., Pösö, H., “S-Adenosylmethionine Decarboxylase (Rat Liver),” Methods Enzymol. 94: 234-239 (1983), respectively, on the basis of quantitation of ^14CO2 released from [^14C]carboxyl-labeled L-ornithine or S-adenosyl-L-methionine. Included in each assay were untreated L210 cells as negative controls as well as cells treated with DEHSPM, a drug having a known reproducible effect on each enzyme, as positive controls.

[7] = tested on: Adenosylmethionine decarboxylase (AdoMet DC); test: AdoMetDC activity in treated L1210 cells; assay type: cell-based, murine
Experimental: as §1

[8] = tested on: Spermidine/spermine N^1-acetyl transferase (SSAT); test: SSAT activity in treated L1210 cells; assay type: cell-based, murine
Text: Spermidine/spermine N^1-acetyl transferase (SSAT) activity was based on quantitation of [^14C]-N^1-acetylspermidine formed by acetylation of SPD with [^14C]-acetyl coenzyme A according to the method of Libby, P. R., Bergeron, R. J., Porter, C. W., “Structure-Function Correlations of Polyamine Analog-Induced Increases in Spermidine/Spermine Acetyltransferase Activity,” Biochem. Pharmacol. 38: 1435-1442 (1989). Cells treated with DENSPM were positive controls.

L1210 leukemia cells [9] = settings: extracellular 30 μM; cited from earlier work
[10] = tested on: Murine L1210 leukemia cells; settings: cited from earlier work
polyamine transporter [11] = settings: L1210 cell suspensions; read-out: Ki, competition for the polyamine transport apparatus (historical numbers); cited from earlier work
[12] = Mus musculus, 48 h exposure, read-out: IC50, 48 h
[13] = Mus musculus, 96 h exposure, read-out: IC50, 96 h
[14] = rat, 450 μmol/kg subcutaneously

Compound C[C@]1(C(=O)O)CSC(c2ccc(OCCCCNCCCNCCCN)cc2O)=N1.Cl.Cl.Cl [Compound 10, (S)-4,5-dihydro-2-[2-hydroxy-4-(12-amino-5,9-diazadodecyloxy)phenyl]-4-methyl-4-thiazolecarboxylic acid trihydrochloride] has an IC50 [1, 12] of 40 µM, an IC50 [1, 13] of 40 µM and a Ki (polyamine transporter [2]; L1210 cell suspensions, read-out: Ki, competition with [3H]SPD for the polyamine transport apparatus) of 73 µM. For the same compound, the “biliary ferrokinetics (in words)” value ([3]; rat, 300 μmol/kg subcutaneously) was “protracted biliary iron clearance”, the “drug species found in tissues of dosed animals” value ([3]; rat, subcutaneous) was “contained largely free acid” and the intracellular level (L1210 leukemia cells [4]; extracellular 100 μM) was “about 70 μM”.
In the case of Cc1c(O)c(=O)ccn1C [Compound L1, 1,2-Dimethyl-3-hydroxypyridin-4-one], the IC50 [1, 12] is reported as 46 µM, the IC50 [1, 13] is reported as 55 µM and the “putrescine, percent of control” value ([5]; treatment 50 μM) is reported as “remained close to control levels”. The “spermidine, percent of control” value ([5]; treatment 50 μM) was “remained close to control levels”, the activity at 50 µM ([5]; Mus musculus, treatment 50 μM, read-out: spermine, percent of control) was 127% and the “ODC activity, % of control” value [6] was 114±5 % of control. For the same compound, the “AdoMetDC activity, % of control” value [7] was 120±4 % of control, the “SSAT activity, % of control” value [8] was 108±58 % of control and the iron-clearing efficiency ([3]; bile duct-cannulated rat, 450 μmol/kg subcutaneously) was 2.2±0.9%. The “share of excreted iron in the bile” value [3, 14] was 74%, the “share of excreted iron in the urine” value [3, 14] was 26% and the intracellular level (L1210 leukemia cells [4]; extracellular 50 μM) was 1 µM.
For CCNCCCNCCCCNCCCNCC [DESPM], the IC50 ([1]; 48 h exposure, read-out: IC50, 48 h) is given as 30 µM, the IC50 ([1]; 96 h exposure, read-out: IC50, 96 h) is given as 0.2 µM and the “intracellular level (previous studies)” value (L1210 leukemia cells [9]) is given as 400 µM.
CC(=O)N(O)CCCCCNC(=O)CCC(=O)N(O)CCCCCNC(=O)CCC(=O)N(O)CCCCCN [DFO] showed an IC50 [1, 12] of 7 µM and an IC50 [1, 13] of 6 µM.
For FC(F)(F)CNCCCNCCCCNCCCNCC(F)(F)F [FDESPM], the IC50 ([1]; exposure time not given, read-out: IC50) was over 100 µM, the “competition for / uptake by the polyamine transporter (in words)” value (polyamine transporter [2]; L1210 cells) was “poor Ki” and the intracellular level (L1210 leukemia cells [4]; extracellular 100 μM) was under 20 µM.
For CCNCCCNCCCCNCCCN [MESPM, N^1-ethylspermine], the “intracellular concentration (analogue accumulation)” value (L1210 leukemia cells [4]) was 1.24 mM.
For CCCNCCCCNCCCN [MPSPD(N^8), N^8-propylspermidine], the “putrescine, percent of control” value ([5]; treatment concentration 100 μM) was “lowered”, the “spermidine, percent of control” value ([5]; treatment concentration 100 μM) was “lowered” and the activity at 100 µM ([5]; Mus musculus, treatment concentration 100 μM, read-out: spermine, percent of control) was 103%. For the same compound, the “AdoMetDC activity, % of control” value [7] was 64 % of control, the “SSAT activity, % of control” value [8] was 500 % of control and the IC50 ([10]; 48 h exposure, read-out: IC50, 48 h (historical numbers)) was over 100 µM. For the same compound, the IC50 ([10]; 96 h exposure, read-out: IC50, 96 h (historical numbers)) was 55 µM, the Ki (polyamine transporter [11]) was 8.5 µM and the “intracellular concentration (analogue accumulation)” value (L1210 leukemia cells [4]) was 3.52 mM.
